Assay results as given in patent US9623084B2, “Methods for treating multiple sclerosis” (UNIVERSITY OF SOUTHERN CALIFORNIA, priority 2013, dated 2017).

How the values were obtained:
[1] = tested on: MOG-EAE in C57BL/6 mice (chronic progressive model of MS); assay: A(1-7) treatment in the chronic progressive MOG-EAE model of MS; type: in vivo; conditions: for disease course (clinical scores): vs control non-treated immunized mice, up to 50 days post immunization
[2] = tested on: PLP-EAE in SJL/J mice (relapsing-remitting model of MS); assay: A(1-7) treatment in the relapsing-remitting PLP-EAE model of MS; type: in vivo; conditions: FIG. 1C
Text: Multiple Sclerosis (MS) is a chronic autoimmune and neurodegenerative disease of the central nervous system (CNS) that is characterized by focal infiltration of leukocytes, including myelin-specific T cells, into the CNS, resulting destruction of myelin, demyelination, oxidative stress, axonal loss and ultimately, clinical symptoms and neurological disability. Experimental autoimmune encephalomyelitis (EAE) is a well-established animal model of MS that mimics many of the features of MS. We evaluated the ability of angiotensin peptide A(1-7) to modulate EAE disease course. For this study we used two common EAE models to study the efficacy of A(1-7), one that replicates the chronic progressive form of MS and the other that follows a relapsing-remitting course of the disease. Mice were immunized with peptides corresponding to major immunodominant regions of two myelin proteins: myelin oligodendrocyte protein 35-55 (MOG-EAE) immunization in C57BL6 mice to induce a chronic progressive disease, or proteolipid protein 139-151 (PLP-EAE) immunization in SJL/J mice induced a relapsing-remitting disease.
Female SJL/J mice, 10-weeks-old, were immunized subcutaneously in 4 sites on their flank (approximately 50 μl each) with 120 μg PLP-139-151 peptide emulsified in 200 μl CFA at baseline. Mice were anesthetized (as described for MOG-EAE) for the immunizations. SJL/J mice are highly susceptible to EAE induction by this method and require only one immunization to achieve disease in 90-100% of mice.
PLP-EAE is a relapsing form of disease in which the first acute attack of neurological symptoms occurs at approximately 10-13 days after immunization, peaks between day 15 and 18, is followed by a period of recovery, or remission for about 10 days. 25-40 days after immunization ˜75% of mice develop a second wave of paralysis (relapse). Relapses are often less severe and of shorter duration than the first attack. PLP-EAE mimics the relapsing-remitting form of MS. […]

[3] = tested on: Normal human progenitor cells (neurosphere cultures); assay: A(1-7) treatment in in vitro neurosphere cultures; type: cell-based
Experimental: Normal human progenitor cells were purchased from Clonetics (San Diego, Calif.) and cultured in Neural Progenitor Cell Maintenance Medium (NPMM) [Neural Progenitor Basal Medium containing human recombinant fibroblast growth factor-beta, human recombinant epidermal growth factor, neural survival factors, gentamycin and amphotericin B)]. The cells were thawed, diluted into NPMM and cultured for 24 hours in a 75 cm^2 flask. Until studies to assess differentiation, the cells were cultured in dedifferentiated spheroids.
In order to assess the differentiation of neuronal cells, the cells were seeded upon wells coated with 0.05% polyethyleneimine (PEI) substrate in borate buffer solution. The wells of a 96 well plate were coated with 0.05 ml of this solution overnight at room temperature. After the incubation, the substrate was removed by aspiration, rinsed with sterile water and allowed to dry before seeding of cells. Four days after plating, the number of cells undergoing differentiation, as assessed by neurite outgrowth) was counted

[4] = treatment started 10 days after immunization, vs control non-treated immunized mice

## Asp-Arg-Val-Tyr-Ile-His-Pro (DRVYIHP) [A(1-7), angiotensin peptide A(1-7)]
[1]; 1 mg/kg/day continuous delivery (Alzet pump) vs control, started day 11, FIG. 3
  disease progression and severity: highly effective at inhibiting disease progression and maintaining reduced severity of the disease
[1]; 2 mg/kg/day continuous delivery vs control saline treated mice, FIG. 3 and FIG. 4A
  restoration from disability: promotes restoration from disability
[1]; all doses, twice daily injection, vs control saline treated mice, started day 11, FIG. 2
  clinical disease score: improved clinical disease score
[1]; once daily sc 0.5 mg/kg A(1-7) from day 10, FIG. 1A
  disease course (clinical scores): less severe disease course
[1]; twice daily injection, total of 1.2 or 4 mg/kg/day vs 0.5 mg/kg/day, started day 11, FIG. 2
  clinical disease score, dose comparison: more effective in reducing clinical disease score than 0.5 mg/kg/day
[1]; twice daily sc 0.5 mg/kg A(1-7) from day 10, FIG. 1B
  disease course (clinical scores): less severe disease course
[2]; PLP-EAE SJL mice, increasing duration of treatment
  disease course (disability) with duration of treatment: improves disease course (less disability) with increasing duration of treatment
[2]; [4]
  disease severity: the disease was less severe
  onset of disease: delayed onset of disease
[3]; PEI-coated wells, counted four days after plating, increasing doses of A(1-7), FIG. 4
  neurite outgrowth and proliferation: promotes neurite outgrowth and proliferation with increasing doses of A(1-7)
[3]; suspension culture in the presence of A(1-7) for 4-7 days prior to placement on an adherent substrate
  number of cells able to undergo differentiation (proliferation): an increase in the number of cells able to undergo differentiation (proliferation)
